Measurements published in patent US10342804B2, “Steroid compound for use in the treatment of hepatic encephalopathy” (Umecrine Cognition AB, priority 2014, dated 2019).

Key:
[1] = Exposure in plasma and brain tissue, hyperammonemic rats (Example 13); format: in vivo, rat; conditions: for Total concentration in plasma: at the time for behavioral testing
Procedure: Male Wistar rats (140-160 g) were made hyperammonemic by feeding them a diet containing ammonium acetate (30% by weight) (Felipo et al, European Journal of Biochemistry, 1988, 176, 567-571).
3α-ethynyl-3β-hydroxyandrostan-17-one oxime in sesame oil was administered by subcutaneous injections in the back of the rats, once daily. Two different sets of experiments were performed in hyperammonemic rats. In the first set four groups of rats were used: 1) control rats injected with vehicle; 2) hyperammonemic rats injected with vehicle; 3) control rats injected with 20 mg/Kg of 3α-ethynyl-3β-hydroxyandrostan-17-one oxime and 4) hyperammonemic rats injected with 20 mg/Kg of 3α-ethynyl-3β-hydroxyandrostan-17-one oxime.
In the second set of experiments five groups of rats were used: 1) control rats injected with vehicle; 2) hyperammonemiac rats injected with vehicle and 3-5) hyperammonemic rats injected with 3, 10 or 20 mg/Kg of 3α-ethynyl-3β-hydroxyandrostan-17-one oxime. In each experiment 6-8 rats per group were used.
At the end of the treatment period plasma was collected from the tail vein, and after sacrifice by decapitation brains were collected and immediately frozen on dry ice. For analysis of 3α-ethynyl-3β-hydroxyandrostan-17-one oxime exposure, brain tissue was homogenized with a 1:4 ratio of tissue: PBS (pH 7.4) and then extracted with a 2-fold volume of methanol:acetonitrile (1:1), while plasma was protein-precipitated with a 3-fold volume with acetonitrile. Analyses were performed by Waters ACQUITY UPLC+Waters XEVO-TQS triple quadrupole mass spectrometer (Admescope Oy, Oulu, Finland). For calculations of the amount of free 3α-ethynyl-3β-hydroxyandrostan-17-one oxime exposure in the brain the fraction unbound (Fb) in brain homogenates were determined by dialysis, Fub in HA=[…] and Fub in PCS=1.43% (Admescope Oy, Oulu, Finland).

[2] = target: T1, human α1β2γ2L GABAA receptors (Homo sapiens, UniProt P14867+P47870); experiment: Whole-cell voltage-clamp electrophysiology, HEK-293 cells expressing α1β2γ2L GABAA receptors; format: cell-based; conditions: for GAMSA effect: α1β2γ2L, 1 μM GAMSA, 30 μM GABA, AUC
T1 construct: expressed in transfected cells; host or cells: HEK-293, permanently transfected
Procedure: For electrophysiology measurements the Dynaflow® system with the Resolve chip was used (Cellectricon, Göteborg, Sweden). HEK-293 cells were permanently transfected with vectors including the human CMV promoter for constitutive expression of the human α5, β3, and γ2L GABAA receptor subunits (α5β3γ2L) or the human α1, β2, and γ2L GABAA receptor subunits (α1β2γ2L). The cell lines used were selected for good reactivity to GABA and to THDOC. Before measurements cells were incubated for 15 min at 37° C. in 95% air+5% CO2 in extracellular solution (EC) containing the following: 137 mM NaCl, 5.0 mM KCl, 1.0 mM CaCl2, 1.2 mM MgCl2, 10 mM HEPES, and 10 mM glucose, 0.1% DMSO pH 7.4. Thereafter, detached cells were added to the EC solution in the Dynaflow chip bath.
Whole-cell voltage-clamp recordings were made at room temperature (21-23° C., −17 mV with compensation for liquid junction potential as in Haage et al., 2002; Neher, 1992). Command pulses were generate and data collected by PClamp 9.0 software, DigiData 1322A converter, and AxonPatch 200B (Axon Instruments, Foster City, Calif.). Patch electrodes (2-6 MΩ) were filled with intracellular solution (IC) including: 140 mM Cs-gluconate, 3.0 mM NaCl, 1.2 mM MgCl2, 10 mM HEPES, 1.0 mM EGTA, 2 mM Mg-ATP, 0.1% DMSO, pH 7.2.
THDOC and 3α-ethynyl-3β-hydroxyandrostan-17-one oxime were dissolved in dimethyl sulfoxide (DMSO) and thereafter diluted with EC solution to include 0.1% DMSO.
Different protocols were used for different electrophysiology measurements. As α1β2γ2L-GABAA receptors in vivo are present within the synapse a condition resembling that situation, a short application (40 ms) of a high GABA concentration (30 μM), was used. Contrary, α5β3γ2L-GABAA receptors are present extrasynaptically, thus the conditions used were long exposures (6 s) to a low GABA concentration (0.3 μM). The EC75 concentration of THDOC was used, i.e. 100 nM with studies of α1β2γ2L and 200 nM when α5β3γ2L expressing cells were evaluated. With both cell types a pre-exposure with THDOC or THDOC plus 3α-ethynyl-3β-hydroxyandrostan-17-one oxime was used before application of GABA.
Steroid effects in presence of GABA were normalized to controls in order to avoid the effects of inter- and intracellular variation in the measured parameters, each cell was used as its own control and the area under the curve (AUC) was analyzed.

[3] = Concentrations in plasma and brain tissue after exogenous administration, LC-MS (Example 5); format: in vivo, rat; conditions: for Unbound brain concentration: 1-2 h after last treatment, seven weeks daily 20 mg/kg s.c.
Source text: The study was divided into two series with animals (male Wistar rats), each series included the following groups; Controls treated with vehicle (CV, n=8 per series), Controls treated with 3α-ethynyl-3β-hydroxyandrostan-17-one oxime (C+GAM, n=8 per series), hyperammonemic rats treated with vehicle (HAV, n=8 per series), hyperammonemic rats treated with 3α-ethynyl-3β-hydroxyandrostan-17-one oxime (HA+GAM, n=8 per series). The once daily treatment with 3α-ethynyl-3β-hydroxyandrostan-17-one oxime at 20 mg/kg or with vehicle was performed with subcutaneous injections of 1 ml/kg around 9 a.m. Treatment started one week after starting with the ammonium containing diet and continued for the whole experimental period.
Blood was obtained from the tail of the rats (from Example 2) in the end of second week of ammonia treatment and first week of 3α-ethynyl-3β-hydroxyandrostan-17-one oxime treatment and also from the neck during the animal sacrifice. To obtain the plasma it was added EDTA […] and centrifuged at 1500 r.p.m during 5 minutes.
Rats were sacrificed by decapitation. One half of the brain including the cerebellum was collected and conserved at −80° C. for determination of 3α-ethynyl-3β-hydroxyandrostan-17-one oxime. Different brain areas (cerebellum, cortex, hippocampus and striatum) were dissected and conserved at −80° C. for possible determination of GAMS.
Collected brain and plasma samples were analyzed for 3α-ethynyl-3β-hydroxyandrostan-17-one oxime concentrations. Plasma and brain samples were thawed at room temperature. Plasma was protein-precipitated with a 3-fold volume with acetonitrile and brain tissue was homogenized with a 1:4 ratio of tissue:PBS (pH 7.4) and then extracted with a 2-fold volume of methanol:acetonitrile (1:1) for 20 min during sonication. Thereafter samples were shaken and centrifuged for 10 min at 10 000×g (Heraeus Pico 17 centrifuge).
The supernatant was then diluted with an equal volume of PBS and analyzed. Some samples were reanalyzed as 10-fold dilutions due to too high concentration of 3α-ethynyl-3β-hydroxyandrostan-17-one oxime. […]

T1 sequence (P14867 28-456): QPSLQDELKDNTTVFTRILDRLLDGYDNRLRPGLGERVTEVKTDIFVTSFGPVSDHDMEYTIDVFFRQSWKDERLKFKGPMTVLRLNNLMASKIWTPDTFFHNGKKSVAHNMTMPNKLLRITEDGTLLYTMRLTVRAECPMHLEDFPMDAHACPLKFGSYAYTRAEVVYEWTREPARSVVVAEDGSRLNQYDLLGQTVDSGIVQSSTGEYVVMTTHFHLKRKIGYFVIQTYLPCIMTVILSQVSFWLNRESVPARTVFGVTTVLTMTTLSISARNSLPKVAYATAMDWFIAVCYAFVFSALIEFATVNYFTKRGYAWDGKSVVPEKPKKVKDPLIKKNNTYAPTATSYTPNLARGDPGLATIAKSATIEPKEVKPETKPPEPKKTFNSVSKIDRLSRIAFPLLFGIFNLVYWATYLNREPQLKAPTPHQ
T1 sequence (P47870 25-512 limits assumed): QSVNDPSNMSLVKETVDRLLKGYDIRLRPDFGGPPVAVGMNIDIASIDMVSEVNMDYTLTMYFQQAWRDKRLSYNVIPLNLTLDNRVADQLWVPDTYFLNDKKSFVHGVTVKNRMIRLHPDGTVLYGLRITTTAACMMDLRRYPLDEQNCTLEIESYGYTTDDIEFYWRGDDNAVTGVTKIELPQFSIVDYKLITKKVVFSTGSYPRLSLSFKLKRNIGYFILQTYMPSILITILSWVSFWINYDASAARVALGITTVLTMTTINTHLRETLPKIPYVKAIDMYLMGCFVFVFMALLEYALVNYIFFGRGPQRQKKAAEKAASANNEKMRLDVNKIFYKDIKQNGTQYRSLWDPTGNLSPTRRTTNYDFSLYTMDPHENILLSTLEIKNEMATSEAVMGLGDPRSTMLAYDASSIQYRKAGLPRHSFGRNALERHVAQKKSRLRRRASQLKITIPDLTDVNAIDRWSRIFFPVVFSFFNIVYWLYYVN
T1 sequence (P18507 40-475 partner): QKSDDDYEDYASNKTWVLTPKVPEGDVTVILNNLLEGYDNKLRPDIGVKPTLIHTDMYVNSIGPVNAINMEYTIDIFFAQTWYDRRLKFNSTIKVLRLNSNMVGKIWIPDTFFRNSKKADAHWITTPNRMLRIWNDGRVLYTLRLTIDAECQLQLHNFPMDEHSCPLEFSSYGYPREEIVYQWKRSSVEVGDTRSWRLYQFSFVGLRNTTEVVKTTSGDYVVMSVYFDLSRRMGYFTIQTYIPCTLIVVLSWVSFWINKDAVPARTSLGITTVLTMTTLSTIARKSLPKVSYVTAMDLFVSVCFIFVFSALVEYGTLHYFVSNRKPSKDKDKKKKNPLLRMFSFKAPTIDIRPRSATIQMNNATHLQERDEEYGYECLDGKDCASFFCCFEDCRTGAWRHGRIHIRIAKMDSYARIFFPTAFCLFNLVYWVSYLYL

C#C[C@]1(O)CC[C@@]2(C)C(CC[C@@H]3[C@@H]2CC[C@]2(C)/C(=N\O)CC[C@@H]32)C1 (stereo partly drawn) [3α-ethynyl-3β-hydroxyandrostan-17-one oxime]
Unbound concentration in the brain tissue ([1]; 3 mg/Kg s.c. once daily): 6.1 ± 1.4 nmol/kg
Total concentration in plasma ([1]; 3 mg/Kg s.c. once daily): 0.34 ± 0.03 µM
Unbound concentration in the brain tissue ([1]; 10 mg/Kg s.c. once daily): 11.6 ± 1.4 nmol/kg
Total concentration in plasma ([1]; 10 mg/Kg s.c. once daily): 1.08 ± 0.11 µM
Unbound concentration in the brain tissue ([1]; 20 mg/Kg s.c. once daily): 23 ± 5 nmol/kg
Total concentration in plasma ([1]; 20 mg/Kg s.c. once daily): 1.95 ± 0.61 µM
inhibition at 1 µM ([2]; HEK293, read-out: Inhibition of the THDOC enhancement of GABA): 29 ± 4.7%
GAMSA effect ([2]; 100 nM THDOC): −29 ± 4.7%
GAMSA effect ([2]; no THDOC (GABA sole activator)): −3.1±1.7%
GAMSA effect ([2]; no THDOC (GABA sole activator), listed as GAMSA): −3.1 ± 1.7%
Unbound brain concentration ([3]; HA rats): 106 ± 15.4 nmol/kg
Unbound brain concentration ([3]; control rats): 91 ± 4.1 nmol/kg
Total concentration in plasma, 23 hours vs 4 hours after injection ([3]; treatment day five, 20 mg/kg s.c., control and hyperammonemic rats): lower 23 hours after injection than 4 hours after injection
